# Assay results as given in patent US12268901B2, “Targeting cell tropism receptors to inhibit cytomegalovirus infection” (priority 2017, dated 2025).
# Tests used:
# Type in all cases: cell-based, Human cytomegalovirus (HCMV)
# [1] = tested on: TB40E-GFP infection of ARPE19 cells; test: cAMP/PKA signaling pathway modulation, TB40E-GFP infection; details: H-89 20 μM, SQ22536 150 μM, FSK 20 μM, 2 h prior to infection, MOI=4.0, 48 hpi
# Experimental: (§1) FIGS. 7A-C. HCMV receptor engagement and cAMP/PKA signaling. ARPE19 or OR14I1 knock down cells were pretreated with phosphokinase A (PKA) inhibitor H-89 (20 μM), adenylate cyclase antagonist, SQ22536 (150 μM), or adenylate cyclase activator, forskolin (FSK; 20 μM) for 2 h prior to TB40E-GFP infection (MOI=4.0). Cells were fixed at 48 hpi and images taken.
# H-89, SQ22536 and Foskolin were purchased from Sigma-Aldrich Chemicals. Wild type ARPE19 or ARPE19 cells expressing the indicated shRNAs were treated with protein kinase A (PKA) inhibitor H-89 (20 μM), adenylate cyclase antagonist, SQ22536 (150 μM), or adenylate cyclase activator, forskolin (FSK; 20 μM) for 2 h prior to infection with TB40E-GFP (MOI=2.0). After 2 h, the medium was then replaced by the standard medium that also contained the noted small molecules. Images were taken at 2 dpi.
# as §1, with “HCMV” for “FIGS. 7A-C. HCMV”, “signaling was also evaluated.” for “signaling.”, “(MOI=4.0).” for “(MOI=4.0). Cells were fixed at 48 hpi and images taken.”
# [2] = tested on: HCMV infection of ARPE19 epithelial cells; test: Peptide blocking assay, infection of ARPE19 cells (percent GFP or IE positive cells); details: short peptides 150 uM preincubated with TB40E, ARPE19, MOI=2.0, 2 dpi
# Experimental: (A) Different amounts of peptide 1 were preincubated with TB40E-GFP virus and the mixture applied to ARPE19. Viral DNA levels were quantified by qPCR. (B) The results in (A) are presented as the relative amount of viral DNA relative to the DMSO control. (C) TB40E-GFP virus was preincubated with peptide 1 (100 μg/ml), or DMSO, followed by infection of ARPE19 cells (MOI=2.0). Cells were imaged for GFP expression at 2 dpi (D2) and 7 dpi (D7). (D) TB40E-GFP or BADrUL131-GFP virus, both expressing PC, were preincubated with peptide 1 (100 μg/ml), or DMSO prior to infection of ARPE19 cells (MOI=2.0). Cells were fixed and imaged for GFP at 2 dpi. All data represent the mean of n=3 experiments+/−SD. (E) Culture media supernatants from (C) were harvested on the indicated dpi and assayed for infectious virus by plaque assay. Values indicate the mean percent infected cells of 3 independent experiments±SD. ****p<0.0001.
# FIG. 9. […] TB40E-GFP encoding the viral PC or AD169 lacking PC were preincubated with peptide 1 (100 μg/ml) and then infected on ARPE19 epithelial cells or HEL fibroblasts (MOI=2.0). Cells were fixed, permeabilized, stained for DNA, immunostained for anti-immediate early protein (IE) and imaged. […] Values indicate the mean percentage of infected cells of n=3 experiments±SD. **p<0.01; ***p<0.001.
# FIG. 11. Each of the short peptides (aa sequences listed in Table 4; 150 uM), Peptide 1 (32.6 μM), or DMSO alone was preincubated with TB40E virus, followed by infection of ARPE19 cell lines (MOI=2.0). Cells were fixed and imaged for GFP and DNA at 2 dpi. Quantitation data indicating the percent GFP positive cells.
# Live cell images: Phase and GFP signal images were captured on a Zeiss microscope (Zeiss AxioObserver Z1) at 10× magnification. Fixed cell images: cells were washed with PBS (Life Technologies) and fixed with 4% formalin in PBS (Sigma). DNA was stained with Hoechst 33342 dye (Life Technologies). The fixed cells were imaged using an Image Xpress Micro (IXM, Molecular Devices) at 4× magnification. Images were analyzed with MetaXpress imaging software (Molecular Devices) to determine the total cells per well and the percentage of infected cells (GFP positive) in each well. For IE immunostaining: fixed cells were permeabilized with 0.2% Triton X-100 (Sigma) in PBS. Blocking was performed with 1% BSA (Calbiochem, 2930) in PBS with 0.3M glycine (Sigma). Cells were then incubated in antibody targeting the major IE proteins (IE, EMD Millipore, MAB8131) diluted in 1% BSA in PBS. Cells were then incubated in secondary antibody (Texas Red-conjugated goat anti-mouse IgG2A, Southern Biotech, 1080-07) in PBS containing 1% BSA.
# At 2 dpi with HCMV TB40E-GFP virus at the indicated MOI, ARPE19 cells were fixed with 4% formaldehyde and nuclei stained with Hoechst 33342. ARPE19 cells were imaged on an automated IXM scanning microscope. Numbers of infected cells were determined by calculating the percent GFP positive cells using MetaXpress software.
# The noted synthetic peptides (100 ug/ml each or as described) were mixed with TB40E-GFP virus (1.2×10^6 PFU) and incubated at 37° C. for 2 h by rocking. The resulting samples were then subjected to the virus binding or infection assay.
# [3] = tested on: TB40E-GFP entry into ARPE19 cells; test: Cell-internalized virus assay in shRNA transduced ARPE19 cells; details: shRNA transduced ARPE19, TB40E-GFP MOI of 2.0, on ice 1 h then 37° C. for 2 h
# Experimental: In parallel to the virus binding assay, a subset of plates were then shifted to 37° C. for 2 h to allow virus entry. […] After 10 cold PBS washes, internalized viral DNA levels were quantified by qPCR.
# To determine whether human OR14I1 and DMBT1 are required for optimal binding of HCMV TB40E-GFP to cells, shPDGFRA, shOR14I1 and shDMBT1 transduced ARPE19 cells were infected with TB40E-GFP at an MOI of 2.0 on ice for 1 h. The cells were washed ten times with cold PBS, and viral DNA associated with the cells was quantified by qPCR. As shown in FIGS. 3A-B, OR14I1 and DMBT1 are required for optimal binding of HCMV TB40E-GFP to cells. In addition, shPDGFRA, shDMBT1 and shOR14I1 transduced ARPE19 cells were infected with TB40E-GFP at an MOI of 2.0 on ice for 1 h. The cells were then shifted to 37° C. for 2 h to allow the virus entry. […] After 10 cold PBS washes, internalized viral DNA levels were quantified by qPCR.
# [4] = tested on: HCMV Ad169 infection of HEL fibroblasts; test: shRNA knockdown HEL fibroblasts infected with Ad169; details: MOI=1.0, 48 hpi
# Experimental: (§2) Each shRNA was cloned into the pLKO.1-blast (Addgene) lentiviral vector followed by viral packing and multiple rounds of amplification in 293T cells. Essentially, the pLKO.1-blast constructs and packaging plasmids were co-transfected into 293T cells with the resulting supernatant harvested at 36 h. Lentiviruses were recovered by ultracentrifugation for 2 h at 28,000 rpm in a Beckman SW28 rotor and resuspensed in DMEM. The lentiviruses were used to transduce the ARPE19 or HEL cells to generate shRNA knock down cells. Populations of stable cells were selected with blasticidin (Invitrogen, 10 μg/ml) for 1 week.
# (§3) The role of these proteins in fibroblast cell-type specific tropism in HCMV infection was also evaluated. The sgRNA knock out HEL-cas9 fibroblast pools were infected with HCMV Ad169 virus at MOI=3, and images were taken 48 hpi. […] HCMV infection resistance was also evaluated after knockdown using shRNA, in epithelial cells. The shOR14I1, shDMBT1 or shPDGFRA shRNA knock down ARPE19 cells were infected with TB40E-GFP virus at MOI=0.1, and images were taken 48 hpi. […] Actin is included as a loading control. Resistance to CMV infection was also evaluated in shPDGFRA, shOR14I1 or shDMBT1 knockdown HEL fibroblasts. Fibroblasts were infected with Ad169 at M01=1.0, and images were taken 48 hpi. […] Western blotting was used to confirm the depletion of PDGFRA and OR14I1 in the cells used in the experiments shown in FIG. 2H; the results are shown in FIG. 2I.
# [5] = tested on: TB40E-GFP infection of ARPE19 cells; test: shRNA knock down ARPE19 cells infected with TB40E-GFP; details: for percentage of GFP positive cells (flow cytometry): shRNA knock down ARPE19, TB40E-GFP, 48 hpi; for resistance to TB40E-GFP infection (GFP images): shRNA knock down ARPE19 cells, MOI=0.1, 48 hpi
# Experimental: as §2
# 48 h after HCMV TB40E-GFP infection, ARPE19 cells were then treated with cell dissociation buffer (Gibco) and incubated at 37° C. for 10 min. Samples were then washed three times with cold buffer and fixed with cold 2% paraformadehyde in PBS. Cells were pelleted and washed and resuspended in washing buffer (0.1% tween-20 in PBS). Finally, the cells were resuspended in staining buffer (1% BSA, 0.1% sodium azide in HBSS) after pelleting again and immunofluorescent cells analyzed using a MACSQUANT analyzer 10 (Miltenyi Biotec) using blue laser 488 nm and filter 525/50 nm. Results were analyzed using FLOWJO V9.9 image analysis software.
# as §3
compound,measurement,setting,value
O=S(=O)(NCCNC/C=C/c1ccc(Br)cc1)c1cccc2cnccc12 [Peptide H-89],infectivity of TB40E-GFP in ARPE19 epithelial cells,[1],reduced infectivity significantly
"Nc1ncnc2c1ncn2C1CCCO1 (stereo not drawn) [SQ22536, 9-(Tetrahydro-2-furanyl)-9H-purin-6-amine]",infectivity of TB40E-GFP in ARPE19 epithelial cells,[1],reduced infectivity significantly
EFLLMEFSGIWEL (OR14I1 peptide 9-21aa),ability to inhibit HCMV infection (percent GFP positive cells),[2],some inhibition
FLLMEFSGIWELQ (OR14I1 peptide 10-22aa),ability to inhibit HCMV infection (percent GFP positive cells),[2],best activity
"GCAGAAGCTCCATCTCTTATC (expressed or natural sequence) [shOR14I1, shRNA targeting OR14I1, in pLKO.1-blast lentiviral vector]","internalized viral DNA, viral load as compared to control-infected cells",[3],about 50%
same,resistance to Ad169 infection,[4],not
same,percentage of GFP positive cells (flow cytometry),[5],significant decrease in GFP-expressing cells
same,resistance to TB40E-GFP infection (GFP images),[5],resistance was seen
"GCCTTTGTACCTCTAGGAATG (expressed or natural sequence) [shPDGFRA, shRNA targeting PDGFRA, in pLKO.1-blast lentiviral vector, reference compound]","internalized viral DNA, viral load as compared to control-infected cells",[3],about 50%
same,resistance to Ad169 infection,[4],resistant to infection
same,percentage of GFP positive cells (flow cytometry),[5],significant decrease in GFP-expressing cells
same,resistance to TB40E-GFP infection (GFP images),[5],resistance was seen
"GGAGTCAACTGTAGCAGAAGG (expressed or natural sequence) [shDMBT1, shRNA targeting DMBT1, in pLKO.1-blast lentiviral vector]","internalized viral DNA, viral load as compared to control-infected cells",[3],about 50%
same,resistance to Ad169 infection,[4],not
same,percentage of GFP positive cells (flow cytometry),[5],significant decrease in GFP-expressing cells
same,resistance to TB40E-GFP infection (GFP images),[5],resistance was seen
LLMEFSGIWELQV (OR14I1 peptide 11-23aa),ability to inhibit HCMV infection (percent GFP positive cells),[2],best activity
LMEFSGIWELQVL (OR14I1 peptide) [Peptide 12-24],ability to inhibit HCMV infection (percent GFP positive cells),[2],best activity
